Measurements from PMC12655235 (Pharmaceuticals, 2025).

Tests used:
[1] = tested on: U87 cells; experiment: MTT assay for cell viability; assay type: cell-based; details: Homo sapiens, U-87 MG, 24 h incubation
Method: U87 cells were maintained in DMEM supplemented with 10% fetal bovine serum and antibiotics (100 U/mL penicillin, 100 µg/mL streptomycin) at 37 °C in a humidified 5% CO2 atmosphere under sterile conditions. To ensure accurate experimental comparisons, all experiments included two control groups: a negative control of cells incubated in drug-free medium, and a solvent control with cells exposed to drug-free medium containing 0.5% DMSO, to evaluate any potential solvent toxicity. Cell viability was determined using the MTT assay after a 24 h incubation of U87 cells with various drug formulations. These included free atorvastatin, free curcumin, a solution combining atorvastatin and curcumin, At-Cu LNCs and FA-At-Cu LNCs. Stock solutions (2 mg/mL) for individual free drugs and their combination were prepared in phosphate-buffered saline (PBS) containing 1% sterile DMSO to ensure complete solubilization, from which serial dilutions (25–800 µg/mL) were then made. At-Cu LNCs and FA-At-Cu LNCs were sonicated for 5 min prior to preparing their serial dilutions (0.025–250 µg/mL). […] The resultant formazan crystals were dissolved in acidified isopropanol, and absorbance was measured at 560 nm using PHERAstar microplate reader (BMG Labtech, Ortenberg, Germany). Cell viability was expressed as a percentage of untreated control cells, and half-maximal inhibitory concentrations (IC50) were calculated. […]

[2] = In vivo pharmacokinetics and biodistribution of 131I-radiolabeled drugs in glioma-bearing mice; set-up: species or system BALB/c mice; details: [131I]-curcumin
Method: Labeling conditions were systematically optimized by varying pH, drug concentration, oxidant amount, and reaction time. […] Purification was achieved by RP-HPLC to remove free iodine and impurities. […] The radiochemical yield was determined by calculating the percentage of the total radioactivity attributed to the radio-iodinated compound, using the following equation [105, 106]: Radiochemical yield %=Activity of labeled compond/Total activity ×100
All animal procedures were conducted in accordance with arrive guidelines and were approved by the Research Ethics Committee at the Faculty of Pharmacy, The British university in Egypt, with approval number (EX-2508). Male BALB/c mice (6 weeks old, weighing 20–25 g) were utilized for the study. Prior to the start of experiments, animals were acclimatized for two weeks under controlled environmental conditions (25 ± 2 °C, 12 h light/dark cycle) in group-housed (3–5 mice/cage) polypropylene cages at the animal house of the Egyptian Atomic Energy Authority. […] For induction of brain tumor in mice, they were anesthetized through intraperitoneal injection of 0.1 mL of ketamine-xylazine solution containing ketamine HCl (25 mg/mL) and xylazine (2.5 mg/mL) as described in current protocols. To implant cells intracranially, a calibrated 26-gauge 701N Hamilton micro-syringe (Micromeasure B.V., The Hague, The Netherlands) was used to inject 5 µL of 2.5 × 10^6 cells of CT-2A glioma cell suspension intracranially through the post glenoid foramen as previously reported. The right auricle was slowly pushed forward during the procedure, exposing the site of insertion. The syringe was held at an appropriate angle, and the cell suspension was slowly injected over 30 s. On completion, the needle was removed gently while applying light finger pressure to prevent bleeding. Additional pressure was applied for an additional 30 s after the removal of the needle to achieve hemostasis.
One hundred and eighty BALB/c mice were randomly assigned into six experimental groups, each further divided into six subgroups (n = 5 per subgroup), corresponding to specific time points post-injection: 0.5, 1, 2, 4, 8, and 24 h. […] Formulations were prepared under aseptic conditions using sterile water for injection and a laminar flow hood.
At each time point, five mice per group were anesthetized using isoflurane, and blood samples were collected by cardiac puncture into pre-heparinized polypropylene tubes. Mice were then euthanized by CO2 inhalation, and organs including the brain, liver, and kidneys and others were excised, rinsed with physiological saline, gently blotted, and weighed. Tissue and plasma samples were analyzed for radioactivity using a well-type γ-scintillation counter (SR-7,Nuclear Enterprises Ltd., San Carlos, CA, USA) and data were expressed as the percentage of the injected dose per gram of tissue (%ID/g).
The mean radioactivity values (represented as % injected dose per gram of tissue, %ID/g) acquired at various time points were examined using PKSolver, a Microsoft Excel add-in, in order to evaluate the pharmacokinetic behavior and tissue distribution of the radiolabeled formulations. […] AUC values based on time-radioactivity data were calculated using the trapezoidal rule.
Two quantitative parameters were computed using the AUC values obtained from the biodistribution study in order to assess the targeting performance and tissue selectivity of the formulations. The following equation was used to calculate tumor targeting efficiency (%): Tumor targeting efficiency %= AUC0−24 glioma/AUC0−24 blood x100

[3] = Solubility study of folic acid in acetone; assay type: physicochemical; details: sedimentation at 40 mg
[4] = cited from earlier work
[5] = i.v. 2 mg/kg, glioma-bearing mice

| IC50 [1] | AUC (0–24 h) Intestine, curcumin ([2]; i.v.) | AUC (0–24 h) Spleen, curcumin ([2]; i.v.) | AUC (0–24 h) kidneys, curcumin ([2]; i.v.) | AUC (0–24 h) liver, curcumin ([2]; i.v.) | AUC (0–24 h) Blood, curcumin [2, 5] | AUC (0–24 h) Brain, curcumin [2, 5] | AUC (0–24 h) Glioma, curcumin [2, 5] | Complete solubility in acetone [3] | Structure (SMILES) | Renal excretion of atorvastatin and its active metabolites [4] |
| --- | --- | --- | --- | --- | --- | --- | --- | --- | --- | --- |
| 724 ± 78.3 µg/mL | 526.50 ± 111.63 %ID*h/g tissue | 7.07 ± 1.70 %ID*h/g tissue | 57.87 ± 12.47 %ID*h/g tissue | 711.50 ± 114.83 %ID*h/g tissue | 72.27 ± 15.44 %ID*h/g tissue | 1.47 ± 0.44 %ID*h/g tissue | 3.72 ± 1.34 %ID*h/g tissue |  | COc1cc(/C=C/C(=O)CC(=O)/C=C/c2ccc(O)c(OC)c2)ccc1O [curcumin, Curcumin] |  |
|  |  |  |  |  |  |  |  | up to 30 mg | Nc1nc2ncc(CNc3ccc(C(=O)N[C@@H](CCC(=O)O)C(=O)O)cc3)nc2c(=O)[nH]1 [FA, Folic acid] |  |
| 680 ± 17.2 µg/mL |  |  |  |  |  |  |  |  | CC(C)c1c(C(=O)Nc2ccccc2)c(-c2ccccc2)c(-c2ccc(F)cc2)n1CC[C@@H](O)C[C@@H](O)CC(=O)O [atorvastatin, Atorvastatin calcium] | less than 2 % of the dose |
